This is an account of results in US12539292B2, “BRM targeting compounds and associated methods of use” (Arvinas Operations, Inc., priority 2018, dated 2026).

Where two headings read alike, the source gives them in different places.

As usually defined, the DC50 is the midpoint of the concentration-degradation curve. As usually defined, the Dmax is the largest share of the target that was removed.

The target in this assay is T1, BRM (Homo sapiens, UniProt P51531).
T1 construct: In-Cell Western Screen of BRM Degradation in SW1573 Cells; endogenous in cells; host or cells: SW1573
The assay can be described thus: In-cell Western screen of BRM degradation in SW1573 cells (Dmax and DC50). It is filed as cell-based. As to conditions: BRM degradation. Put shortly: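 SW1573 cells were treated with compound overnight (18-20 h; final DMSO 0.1%), then fixed in 4% PFA, permeabilized with Triton X-100 and blocked. BRM was detected by in-cell Western using 800 nm anti-rabbit and 680 nm anti-mouse secondaries, and Dmax and DC50 were derived from the LI-COR Odyssey signal.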

Setting [1] is: SW1573 cells, read-out: Dmax (% degraded).
Where [2] appears, read: SW1573 cells, when tested at the top concentration of between 0.3 and 10 μM, read-out: Dmax (%) (% degraded).

T1 sequence (P51531 whole entry): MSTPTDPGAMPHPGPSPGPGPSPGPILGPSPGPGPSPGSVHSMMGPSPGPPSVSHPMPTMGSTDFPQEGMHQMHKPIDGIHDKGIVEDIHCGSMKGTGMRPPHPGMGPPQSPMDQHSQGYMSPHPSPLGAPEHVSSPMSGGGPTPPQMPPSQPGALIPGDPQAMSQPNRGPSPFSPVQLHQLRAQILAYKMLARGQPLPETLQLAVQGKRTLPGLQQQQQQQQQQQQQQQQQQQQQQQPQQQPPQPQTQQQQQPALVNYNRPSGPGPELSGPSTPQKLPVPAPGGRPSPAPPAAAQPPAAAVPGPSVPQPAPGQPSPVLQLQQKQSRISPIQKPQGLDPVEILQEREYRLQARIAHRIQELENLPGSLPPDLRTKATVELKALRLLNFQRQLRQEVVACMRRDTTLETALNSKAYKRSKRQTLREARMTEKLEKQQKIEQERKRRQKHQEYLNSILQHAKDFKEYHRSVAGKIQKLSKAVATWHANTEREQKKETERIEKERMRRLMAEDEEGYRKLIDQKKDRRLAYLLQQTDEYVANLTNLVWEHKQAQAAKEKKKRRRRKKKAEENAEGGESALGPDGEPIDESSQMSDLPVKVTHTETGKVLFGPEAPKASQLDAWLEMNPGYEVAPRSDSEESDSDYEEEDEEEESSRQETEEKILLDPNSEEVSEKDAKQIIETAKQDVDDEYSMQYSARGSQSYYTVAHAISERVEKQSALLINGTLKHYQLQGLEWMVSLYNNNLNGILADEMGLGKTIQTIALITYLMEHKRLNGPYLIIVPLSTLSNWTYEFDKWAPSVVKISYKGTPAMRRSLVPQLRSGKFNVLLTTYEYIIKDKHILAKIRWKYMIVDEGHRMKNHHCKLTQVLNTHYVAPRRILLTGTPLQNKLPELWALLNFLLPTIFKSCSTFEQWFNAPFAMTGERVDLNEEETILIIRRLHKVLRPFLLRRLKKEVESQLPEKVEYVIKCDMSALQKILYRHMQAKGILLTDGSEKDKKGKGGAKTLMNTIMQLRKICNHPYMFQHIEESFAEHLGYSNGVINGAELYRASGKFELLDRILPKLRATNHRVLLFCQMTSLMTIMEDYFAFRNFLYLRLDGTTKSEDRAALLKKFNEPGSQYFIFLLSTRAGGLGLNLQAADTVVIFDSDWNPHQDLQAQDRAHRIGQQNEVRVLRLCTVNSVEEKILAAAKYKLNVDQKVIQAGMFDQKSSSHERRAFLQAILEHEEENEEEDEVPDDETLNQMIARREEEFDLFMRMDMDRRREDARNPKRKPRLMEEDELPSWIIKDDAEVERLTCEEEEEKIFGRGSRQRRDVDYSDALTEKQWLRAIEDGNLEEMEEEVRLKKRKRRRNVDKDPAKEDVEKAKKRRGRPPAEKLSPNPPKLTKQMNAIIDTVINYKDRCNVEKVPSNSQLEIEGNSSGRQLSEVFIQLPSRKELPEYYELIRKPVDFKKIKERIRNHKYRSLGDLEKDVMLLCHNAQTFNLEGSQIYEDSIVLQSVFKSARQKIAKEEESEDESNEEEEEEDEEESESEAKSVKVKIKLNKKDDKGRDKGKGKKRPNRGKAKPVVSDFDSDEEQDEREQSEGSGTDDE

For the compound `Cc1ncsc1-c1ccc([C@H](C)NC(=O)[C@@H]2C[C@@H](O)CN2C(=O)[C@@H](c2cc(N3CCC4(CCN(CC5CCN(C[C@H]6C[C@H](Oc7cc(N8C9CCC8CN(c8cc(-c%10ccccc%10O)nnc8N)C9)ccn7)C6)CC5)CC4)CC3)no2)C(C)C)cc1` [compound 689, (2S,4R)-1-((2R)-2-(3-(9-((1-(((1r,3r)-3-((4-(3-(3-amino-6-(2-hydroxyphenyl)pyridazin-4-yl)-3,8-diazabicyclo[3.2.1]octan-8-yl)pyridin-2-yl)oxy)cyclobutyl)methyl)piperidin-4-yl)methyl)-3,9-diazaspiro[5.5]undecan-3-yl)isoxazol-5-yl)-3-methylbutanoyl)-4-hydroxy-N-((S)-1-(4-(4-methylthiazol-5-yl)phenyl)ethyl)pyrrolidine-2-carboxamide], the DC50 (SW1573 cells, read-out: DC50) is under 2.5 nM. For the same compound, the greatest degradation seen (Dmax) under setting [1] is over 75%.

For `Cc1ncsc1-c1ccc(CNC(=O)[C@@H]2C[C@@H](O)CN2C(=O)[C@@H](c2cc(OCCN3CCN(CCCc4cc(N5C6CCC5CN(c5cc(-c7ccccc7O)nnc5N)C6)ccn4)CC3)no2)C(C)C)cc1` [compound 44, (2S,4R)-1-[(2R)-2-[3-(2-[4-[3-(4-[3-[3-amino-6-(2-hydroxyphenyl)pyridazin-4-yl]-3,8-diazabicyclo[3.2.1]octan-8-yl]pyridin-2-yl)propyl]piperazin-1-yl]ethoxy)-1,2-oxazol-5-yl]-3-methylbutanoyl]-4-hydroxy-N-[[4-(4-methyl-1,3-thiazol-5-yl)phenyl]methyl]pyrrolidine-2-carboxamide], the DC50 (SW1573 cells, read-out: DC50) lay within 10 to 30 nM. Further, the greatest degradation seen (Dmax) under setting [2] is over 75%.

Turning to `Cc1ncsc1-c1ccc([C@H](C)NC(=O)[C@@H]2C[C@@H](O)CN2C(=O)[C@@H](c2cc(N3CCC[C@H](CN4CCC(O[C@H]5C[C@H](Oc6cc(N7C8CCC7CN(c7cc(-c9ccccc9O)nnc7N)C8)ccn6)C5)CC4)C3)no2)C(C)C)cc1` (single isomer, unassigned) [compound 656], where the note is “SW1573 cells, read-out: DC50”, the half-maximal degradation concentration (DC50) is under 2.5 nM. Also, the greatest degradation seen (Dmax) under setting [1] was over 75%.

For `Cc1ncsc1-c1ccc([C@H](C)NC(=O)[C@@H]2C[C@@H](O)CN2C(=O)[C@@H](c2cc(N3CCC(CN4CCC(O[C@H]5C[C@@H](N6CCC(C(C)n7cc(-c8cc(-c9ccccc9O)nnc8N)cn7)CC6)C5)CC4)CC3)no2)C(C)C)cc1` (stereo partly drawn) [compound 665, (2S,4R)-1-((2R)-2-(3-(4-((4-((1s,3s)-3-(4-(1-(4-(3-amino-6-(2-hydroxyphenyl)pyridazin-4-yl)-1H-pyrazol-1-yl)ethyl)piperidin-1-yl)cyclobutoxy)piperidin-1-yl)methyl)piperidin-1-yl)isoxazol-5-yl)-3-methylbutanoyl)-4-hydroxy-N-((S)-1-(4-(4-methylthiazol-5-yl)phenyl)ethyl)pyrrolidine-2-carboxamide], the 50% degradation concentration (DC50) (SW1573 cells, read-out: DC50) was under 2.5 nM. Moreover, the Dmax under setting [1] was over 75%.

Take `Cc1ncsc1-c1ccc([C@H](C)NC(=O)[C@@H]2C[C@@H](O)CN2C(=O)[C@@H](c2cc(OCCN3CCN(CCOc4cc(N5C6CCC5CN(c5cc(-c7ccccc7O)nnc5N)C6)ccn4)[C@H](C)C3)no2)C(C)C)cc1` [compound 139, (2S,4R)-1-((2R)-2-(3-(2-((3R)-4-(2-((4-(3-(3-amino-6-(2-hydroxyphenyl)pyridazin-4-yl)-3,8-diazabicyclo[3.2.1]octan-8-yl)pyridin-2-yl)oxy)ethyl)-3-methylpiperazin-1-yl)ethoxy)isoxazol-5-yl)-3-methylbutanoyl)-4-hydroxy-N-((S)-1-(4-(4-methylthiazol-5-yl)phenyl)ethyl)pyrrolidine-2-carboxamide]: the half-maximal degradation concentration (DC50) (SW1573 cells, read-out: DC50) is under 2.5 nM. For the same compound, the maximal degradation (Dmax) under setting [2] was over 75%.

Take `Cc1ncsc1-c1ccc([C@H](CCC#N)NC(=O)[C@@H]2C[C@@H](O)CN2C(=O)[C@H](c2cc(OCCN3CCC(O[C@H]4C[C@H](Oc5cc(N6C7CCC6CN(c6cc(-c8ccccc8O)nnc6N)C7)ccn5)C4)CC3)no2)C(C)C)cc1` [compound 532, (2S,4R)-1-((2S)-2-(3-(2-(4-((1r,3S)-3-((4-(3-(3-amino-6-(2-hydroxyphenyl)pyridazin-4-yl)-3,8-diazabicyclo[3.2.1]octan-8-yl)pyridin-2-yl)oxy)cyclobutoxy)piperidin-1-yl)ethoxy)isoxazol-5-yl)-3-methylbutanoyl)-N-((S)-3-cyano-1-(4-(4-methylthiazol-5-yl)phenyl)propyl)-4-hydroxypyrrolidine-2-carboxamide]: the 50% degradation concentration (DC50) (read-out: BRM DC50) is over 30 nM.

In the case of `Cc1ncsc1-c1ccc([C@H](C)NC(=O)[C@@H]2C[C@@H](O)CN2C(=O)[C@@H](c2cc(OCCN3CCC(O[C@H]4C[C@H](Oc5cc(N6C7CCC6CN(c6ccnc8nc(-c9ccccc9O)cn68)C7)ccn5)C4)CC3)no2)C(C)C)cc1` [compound 515], for the setting “read-out: BRM DC50”, the DC50 is over 30 nM.

In the case of `Cc1cc([C@@H](C(=O)N2C[C@H](O)C[C@H]2C(=O)N[C@@H](COCCCCCc2cc(-c3ccccc3O)nnc2N)c2ccc(-c3scnc3C)cc2)C(C)C)on1` [compound 529, (2S,4R)-N-((R)-2-((5-(3-amino-6-(2-hydroxyphenyl)pyridazin-4-yl)pentyl)oxy)-1-(4-(4-methylthiazol-5-yl)phenyl)ethyl)-4-hydroxy-1-((S)-3-methyl-2-(3-methylisoxazol-5-yl)butanoyl)pyrrolidine-2-carboxamide], for the setting “read-out: BRM DC50”, the DC50 was over 30 nM.

On to `Cc1ncsc1-c1ccc([C@@H](NC(=O)[C@@H]2C[C@@H](O)CN2C(=O)[C@@H](c2cc(OCCN3CCN(CCOc4cc(N5C6CCC5CN(c5cc(-c7ccccc7O)nnc5N)C6)ccn4)CC3)no2)C(C)C)C(F)F)cc1` [compound 102, (2S,4R)-1-((2R)-2-(3-(2-(4-(2-((4-(3-(3-amino-6-(2-hydroxyphenyl)pyridazin-4-yl)-3,8-diazabicyclo[3.2.1]octan-8-yl)pyridin-2-yl)oxy)ethyl)piperazin-1-yl)ethoxy)isoxazol-5-yl)-3-methylbutanoyl)-N-((R)-2,2-difluoro-1-(4-(4-methylthiazol-5-yl)phenyl)ethyl)-4-hydroxypyrrolidine-2-carboxamide], for which the 50% degradation concentration (DC50) (SW1573 cells, read-out: DC50) is under 2.5 nM. Also, the Dmax under setting [2] is over 75%.

For `Cc1ncsc1-c1ccc([C@H](C)NC(=O)[C@@H]2C[C@@H](O)CN2C(=O)[C@@H](c2cc(OCC[C@@H]3CCN(C[C@H]4C[C@H](Oc5cc(N6C7CCC6CN(c6cc(-c8ccccc8O)nnc6N)C7)ccn5)C4)[C@@H](C)C3)no2)C(C)C)cc1` (racemic) [compound 582, (2S,4R)-1-((2R)-2-(3-(2-((2S,4R)-1-(((1r,3S)-3-((4-(3-(3-amino-6-(2-hydroxyphenyl)pyridazin-4-yl)-3,8-diazabicyclo[3.2.1]octan-8-yl)pyridin-2-yl)oxy)cyclobutyl)methyl)-2-methylpiperidin-4-yl)ethoxy)isoxazol-5-yl)-3-methylbutanoyl)-4-hydroxy-N-((S)-1-(4-(4-methylthiazol-5-yl)phenyl)ethyl)pyrrolidine-2-carboxamide], the maximal degradation (Dmax) (SW1573 cells, Table 2D, read-out: **Dmax (%) (% degraded)) was over 75%. Moreover, where the note is “SW1573 cells, Table 2D, read-out: *DC50”, the DC50 was under 2.5 nM.

For `Cc1ncsc1-c1ccc([C@H](C)NC(=O)[C@@H]2C[C@@H](O)CN2C(=O)[C@@H](c2cc(N3CCC(CN4CCC(O[C@H]5C[C@H](Oc6cc(N7C8CCC7CN(c7cc(-c9ccccc9O)nnc7N)C8)ccn6)C5)CC4)CC3)no2)C(C)C)c(O)c1` [compound 690, (2S,4R)-1-((2R)-2-(3-(4-((4-((1r,3r)-3-((4-(3-(3-amino-6-(2-hydroxyphenyl)pyridazin-4-yl)-3,8-diazabicyclo[3.2.1]octan-8-yl)pyridin-2-yl)oxy)cyclobutoxy)piperidin-1-yl)methyl)piperidin-1-yl)isoxazol-5-yl)-3-methylbutanoyl)-4-hydroxy-N-((S)-1-(2-hydroxy-4-(4-methylthiazol-5-yl)phenyl)ethyl)pyrrolidine-2-carboxamide], the DC50 (SW1573 cells, read-out: DC50) is under 2.5 nM. Besides, the Dmax under setting [1] was over 75%.

Regarding `Cc1ncoc1-c1ccc([C@H](C)NC(=O)[C@@H]2C[C@@H](O)CN2C(=O)[C@@H](c2cc(OCCN3CCN(CCOc4cc(N5C6CCC5CN(c5cc(-c7ccccc7O)nnc5N)C6)ccn4)CC3)no2)C(C)C)cn1` [compound 117, (2S,4R)-1-((2R)-2-(3-(2-(4-(2-((4-(3-(3-amino-6-(2-hydroxyphenyl)pyridazin-4-yl)-3,8-diazabicyclo[3.2.1]octan-8-yl)pyridin-2-yl)oxy)ethyl)piperazin-1-yl)ethoxy)isoxazol-5-yl)-3-methylbutanoyl)-4-hydroxy-N-((S)-1-(6-(4-methyloxazol-5-yl)pyridin-3-yl)ethyl)pyrrolidine-2-carboxamide], the 50% degradation concentration (DC50) (SW1573 cells, read-out: DC50) lay in the range of 2.5 to 10 nM. Also, under setting [2], the Dmax was over 75%.

Turning to `Cc1ncsc1-c1ccc([C@@H](NC(=O)[C@@H]2C[C@@H](O)CN2C(=O)[C@H](c2cc(OCCN3CCN(CCOc4cc(N5C6CCC5CN(c5cc(-c7ccccc7O)nnc5N)C6)ccn4)CC3)no2)C(C)C)C(=O)N(C)c2ccccc2)cc1` [compound 258, (2S,4R)-1-((2S)-2-(3-(2-(4-(2-((4-(3-(3-amino-6-(2-hydroxyphenyl)pyridazin-4-yl)-3,8-diazabicyclo[3.2.1]octan-8-yl)pyridin-2-yl)oxy)ethyl)piperazin-1-yl)ethoxy)isoxazol-5-yl)-3-methylbutanoyl)-4-hydroxy-N-((R)-2-(methyl(phenyl)amino)-1-(4-(4-methylthiazol-5-yl)phenyl)-2-oxoethyl)pyrrolidine-2-carboxamide], the DC50 (SW1573 cells, read-out: DC50) was over 30 nM.
